Assay results from patent publication US20040023984A1, “Compounds for the treatment of alzheimer's disease” (priority 1987, published 2004).

Tests used:
acetylcholinesterase [1] = target: T1, acetylcholinesterase (Homo sapiens, UniProt P22303); assay: Inhibition of acetylcholinesterase, procedure of Ellman (acetylthiocholine substrate, photometric); assay type: biochemical
Protocol: The anticholinesterase activity of the compounds prepared in the above examples was assayed by an assay for inhibition of acetylcholinesterase following the procedure of G. Ellman, […], 7:88-95 (1961) Acetylthiocholine serves as substrate since it acts like acetylcholine. Acetylcholinesterase cleaves it to thiocholine and acetate which react with dithiobisnitrobenzoate to form a yellow color which is measured photometrically.
This assay was carried out at dilution of 10^−5 molar
The compounds were tested in the assay described after Example 5 but at different concentrations. The results obtained were as follows:
Further compounds were prepared by methods analogous to those described above and were tested in a cholinesterase assay as described above.

EEG—recorded activity = conditions: relative to galanthamine; cited from earlier work
[2] = tested on: scopolamine induced memory deficit; assay: Scopolamine dementia dark avoidance test (passive avoidance); assay type: in vivo, male CFW mice; conditions: for # > CO/n / % > CO / Mean Latency: Table 2, cut-off 41 seconds
Protocol: Furnished data on the effects of these compound on cholinesterase activity were used to determine doses for testing. […] The two other compounds were tested at 1,3 and 10 mg/kg sc and did antagonize the scopolamine induced deficit.
Training and testing of passive avoidance were conducted in a two-compartment (light/dark) test cage. On the training day, mice were individually placed in the light half of the cage and after entering the dark compartment, were administered a 3 sec 0.4 mA footshock. They were then removed from the test chamber and returned to their home cages. Twenty-four hours later, the animals were again placed in the lighted half of the test cage and the latency to enter the dark compartment was measured.
All animals in each group of 15 naive male CFW mice were injected twice subcutaneously. Thirty minutes prior to training, animals were administered 3 mg/kg scopolamine HBr or its 0.9% NaCl vehicle. Five minutes prior to training, independent groups were administered one of three doses of the test compounds or the distilled water vehicle. One group in each experiment received vehicle twice, another group received scopolamine and the dH2O vehicle; the remaining groups received scopolamine and a test compound.
A cutoff value (CO), defined as the second-longest latency in the scopolamine/vehicle treated group, was used to determine whether a compound was active. If 20% or more of the animals in a treatment group had latencies greater than the CO value, the compound was considered active at that dose.
The three compounds were tested in two separate experiments; the results are presented below in Tables 1 and 2. Doses considered active are marked with an asterisk (*).

[3] = tested on: nucleas basalis-lesioned animals; assay: Nucleus basalis model, passive avoidance in shuttle box; assay type: in vivo, mice
Source text: The following test provides a good animal model for Alzheimer's disease in humans: A selective lesion is placed in a subcortical nucleus (nucleus basalis of Meynert) with a resultant cortical cholinergic deficiency, similar in magnitude to that seen in early to moderate stage Alzheimer's disease. Numerous behavioral deficits, including the inability to learn and retain new information, characterizes this lesion. Drugs that can normalize these abnormalities would have a reasonable expectation of efficacy in Alzheimer's disease. Haroutunian, V, Kanof P, Davis, K L: Pharmacological alleviations of cholinergic-lesion-induced memory defects in rats. Life Sciences, 37:945-952 (1985).
(§1) Galanthamine n-butyl carbamate was tested in the nucleus basalis model for galanthamine discussed in the Hartounian et al paper noted above. In the test, mice were given the drug three and ½ hours before two learning trials in a shuttle box. They are placed in the lighted compartment and receive an electric footshock when they cross into the preferred side, the dark. The next day, they are again placed in the lighted compartment and the time to enter the dark is noted. The latency to enter the dark compartment is the basis for this figure. […] Below 50 mg/kg no side effects were noted.

acetylcholinesterase [4] = target: T1, acetylcholinesterase; assay: Acetylcholinesterase Inhibition Assay (other cholinesterase activity tests, may be less reliable); assay type: biochemical; conditions: results may be less reliable
normal mice = assay: Passive avoidance shuttle box test using normal mice; assay type: in vivo
Protocol: as §1
In a similar test using normal mice, the mice remained in the light (less preferred) side of the shuttle box for over six minutes at the best dose (0.1 mg/kg) as compared to a best dose result of about 90 seconds for the nucleas basalis-lesioned animals.

mice = assay: Cholinergic side effects in mice at high doses; assay type: in vivo
Protocol: as §1

cholinesterase = conditions: relative to galanthamine; cited from earlier work
[5] = tested on: respiration and heart activity; conditions: relative to galanthamine; cited from earlier work
[6] = 3 mg/kg; cited from earlier work

T1 sequence (P22303 32-614, species assumed): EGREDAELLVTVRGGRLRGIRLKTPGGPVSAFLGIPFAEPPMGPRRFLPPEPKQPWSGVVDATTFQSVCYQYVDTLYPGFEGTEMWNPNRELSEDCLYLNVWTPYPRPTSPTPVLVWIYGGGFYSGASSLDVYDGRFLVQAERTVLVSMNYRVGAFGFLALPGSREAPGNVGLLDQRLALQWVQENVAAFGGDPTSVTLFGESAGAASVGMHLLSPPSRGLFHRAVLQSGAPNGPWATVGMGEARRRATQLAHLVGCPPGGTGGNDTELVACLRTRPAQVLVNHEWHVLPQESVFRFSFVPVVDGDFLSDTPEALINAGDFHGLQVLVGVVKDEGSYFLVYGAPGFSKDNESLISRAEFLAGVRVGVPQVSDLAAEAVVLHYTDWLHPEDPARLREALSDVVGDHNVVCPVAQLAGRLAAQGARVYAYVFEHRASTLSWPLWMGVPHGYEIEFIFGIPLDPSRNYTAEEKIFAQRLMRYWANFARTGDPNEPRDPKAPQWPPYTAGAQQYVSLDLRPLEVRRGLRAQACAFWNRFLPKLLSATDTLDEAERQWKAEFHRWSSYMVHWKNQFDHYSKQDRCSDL

SMILES: COc1ccc2c3c1OC1CC(O)CC[C@@]31CCN(C)C2 (stereo partly drawn) [lycoramine]
- inhibition at 10 µM (acetylcholinesterase [1]; 10^−5 M, further compounds, read-out: cholinesterase inhibition at 10^−5 M): 30%
- concentration required to stimulate EEG-recorded activity, times that required for galanthamine (EEG—recorded activity): about five
- antagonism of scopolamine induced memory deficit ([2]; 10 mg/kg sc): active
- # > CO/n ([2]; scopolamine + 1 mg/kg sc): 1/15
- % > CO ([2]; scopolamine + 1 mg/kg sc): 7%
- Mean Latency ([2]; scopolamine + 1 mg/kg sc): 26 s
- # > CO/n ([2]; scopolamine + 3 mg/kg sc): 0/15
- Mean Latency ([2]; scopolamine + 3 mg/kg sc): 19 s
- % > CO ([2]; scopolamine + 3 mg/kg sc, * = dose considered active): 0%
- # > CO/n ([2]; scopolamine + 10 mg/kg sc): 4/15
- Mean Latency ([2]; scopolamine + 10 mg/kg sc): 48 s
- % > CO ([2]; scopolamine + 10 mg/kg sc, * = dose considered active): 27* %

SMILES: CCCCNC(=O)O[C@@H]1C=CC23CCN(C)Cc4ccc(OC)c(c42)O[C@@H]3C1 (stereo partly drawn) [galanthamine n-butyl carbamate]
- best dose result, latency to enter the dark compartment ([3]; nucleas basalis-lesioned animals, best dose): about 90 seconds
- passive avoidance result compared with galanthamine ([3]; nucleus basalis model, mice): comparable with those obtained with galanthamine
- best dose in passive avoidance test ([3]; nucleus basalis model, mice, drug given three and ½ hours before learning trials): 0.5 mg/kg
- inhibition of acetylcholinesterase at concentration 10^−5 (acetylcholinesterase [1]; 10^−5 molar): 75
- % Inhibition at 10^−6 (acetylcholinesterase [4]; 10^−6): 37%
- % Inhibition at 10^−7 (acetylcholinesterase [4]; 10^−7): 9%
- % Inhibition at −10^−5 (acetylcholinesterase [4]; −10^−5): 44%
- best dose in passive avoidance test (normal mice): 0.1 mg/kg
- time mice remained in the light side of the shuttle box (normal mice; best dose (0.1 mg/kg)): over six
- dose below which no side effects were noted (mice; mice): Below 50 mg/kg
- side effects and lethality (mice; two mice given 100 mg/kg): showed cholinergic side effects but neither died

SMILES: COc1ccc2c3c1O[C@H]1C[C@H](O)C=C[C@@]31CCN(C)C2 [epigalanthamine]
- anti-cholinesterase activity as % of that of galanthamine (cholinesterase): 10%

SMILES: COc1ccc2c3c1OC1CC(=O)C=C[C@@]31CCN(C)C2 (stereo partly drawn) [Narwedine, narwedine]
- anti-cholinesterase activity as % of that of galanthamine (cholinesterase): less than 1%
- cholinergic effects on respiration and heart activity, lower than galanthamine [5]: 50-80%
- anticurare activity [6]: weak
